This is an account of results in paper PMC8850458, “The AUTOTAC chemical biology platform for targeted protein degradation via the autophagy-lysosome system” (Nature Communications, 2022).

“And” between values parts separate entries of the source, which are not always exact repeats. Equal values may be shown once.

For experiment [1], the target named is T1, p62 (Homo sapiens, UniProt Q13501).
T1 construct: expressed in transfected cells; host or cells: HEK293T, transient; whole lysate used
As to the kind of experiment: In vitro p62 oligomerization assay. Type of experiment: biochemical. The note with it: HEK293T lysate. As to the method: HEK293T cells were transiently transfected with a plasmid encoding p62-myc/his fusion proteins. Cells were resuspended in lysis buffer [50 mM HEPES (pH 7.4), 0.15 M KCl, 0.1% Nonidet P-40), 10% glycerol, containing a mixture of protease inhibitors and phosphatase inhibitor (Abcam)]. To lyse the cells, 10 cycles of freezing and thawing was done, followed by centrifugation at 13,000 × g for 20 min at 4 °C. Using a BCA assay, the protein concentration of the supernatant was measured. A total of 1 μg of protein was incubated with 1 mM of p62-ZZ ligands in the presence of 100 μM bestatin (Enzo) at room temperature for 2 h. After incubation, each sample was mixed with non-reducing 4X LDS sample buffer, heated at 95 °C for 10 min, and resolved using 4–20% gradient SDS-PAGE (Bio-Rad). To monitor the conversion of p62 monomers into oligomers or aggregates, IB assay was performed using anti-myc antibody.

The test system of experiment [2] is Ub^+ and p62^+ puncta. As to the kind of experiment: ICC of Ub (FK2) and p62 puncta in HeLa cells. Type of experiment: cell-based. The note with it: 1 μM 24 h, autophagy inhibition (HCQ). As to the method:
Fig. 4 Targeted autophagic delivery and degradation of misfolded protein cargoes using AUTOTACs with aggregate-binding warhead. a A model illustrating the mode of action of aggregate-targeting AUTOTAC. b Chemical structures of PBA-1105, PBA-1106, Anle138b-F105 and PBA-1105b. c In vitro p62 oligomerization assay in HEK293T cells incubated with the indicated compounds in (b). d WB in HEK293T cells treated with MG132 (1 μM, 24 h), HCQ (10 μM, 24 h), PBA-1105, YTK-1105, and PBA (1 μM, 24 h). e Identical to (d), but with Anle-F105. f ICC of HeLa cells treated with HCQ (10 μM, 24 h), MG132 (2 μM, 18 h) or both in the presence of PBA-1106, YOK-1106 or PBA (1 μM, 24 h). Scale bar, 10 μm. g Quantification of (f) (n = 3, 50 cells). h ICC of HeLa cells treated with Anle138b-F105 (1 μM, 24 h). Scale bar, 10 μm. i Quantification of (h) (n = 3, 50 cells). When indicated, n = 3 biologically independent experiments each counting 50 cells. Data are presented as mean values ± SD where relevant. P-values (from a two-sided unpaired t test): ***P < 7.66E−05. Source data are provided with this paper.
(§1) Cells were cultured on coverslips coated with poly-L-lysine (Sigma) to observe cellular localization of proteins. Using 4% paraformaldehyde in PBS (pH 7.4), the cells were fixed for 15 min at room temperature and washed three times for 5 min with PBS. After fixing, the cells were permeabilized with 0.5% Triton X-100 in PBS solution for 15 min and washed three times with PBS for 5 min. The cells were blocked containing 2% BSA in PBS solution for 1 h at room temperature. Subsequently, the cells were incubated with primary antibody diluted in 2% BSA/PBS solution overnight at 4 °C, followed by washing the cells three times for 10 min with PBS and incubated with Alexa Fluor-conjugated secondary antibody diluted in 2% BSA/PBS for 30 min at room temperature. Using a DAPI-containing mounting medium (Vector Laboratories), the coverslips were mounted on glass slides. Confocal images were taken by laser scanning confocal microscope 510 Meta (Zeiss) and analyzed by Zeiss LSM Image Browser (ver. 4.2.0.121). […] Quantification results are shown as mean ± S.D. or S.E.M. of three independent experiments

Experiment [3] concerns the target tauP301L (Homo sapiens, UniProt P10636, P618L). The experiment in a line: WB degradation of tauP301L in SH-SY5Y-tauP301L cells. The note with it: SH-SY5Y-tauP301L cells. The format is cell-based. As to the method:
(§2) Adherent cells were washed with phosphate-buffered saline (PBS) and cell pellets were lysed in SDS-based sample buffer (277.8 mM Tris-HCI, pH 6.8, 4.4% LDS, 44.4% (v/v) glycerol) containing beta-mercaptoethanol. Alternatively, cell pellets or protein supernatants were lysed in 5X Laemmli sample buffer. Whole-cell lysates were separated using SDS-PAGE, and transferred onto polyvinyllidene difluoride membranes at 100 V for 2 h at 4 °C. The membrane was incubated with a blocking solution consisting 4% skim milk in PBS solution for 30 min at room temperature and incubated with primary antibodies overnight, followed by incubation with host-specific HRP-conjugated secondary antibodies (1:10000 dilution). For signal detection, the membrane was developed with a mixture of ECL solution (Thermo Fisher Scientific) using X-ray films. Densitometry of developed bands was measured and analyzed with ImageJ (NIH, Bethesda).

In experiment [4] the target is T1, p62. The experiment in a line: In vitro pulldown assay with biotinylated p62 ligands. The format is binding. As to conditions: biotinylated ligand, HEK293T extracts. As for the experimental part:
A set of synthetic 12-mer peptides corresponding to the N-terminal sequences of the V-BiP (V[19]-[…]-biotin) and V-RGS4 (V^2-[…]-biotin) was C-terminally biotin-conjugated. Alternatively, biotinylated versions of YOK-1304, YT-8-8, YTK-1105, YOK-2204, and PBA were synthesized. To cross-link the above peptides with resin beads, biotin-conjugated peptides, and small molecule were mixed with high-capacity streptavidin agarose resin (Thermo Fisher Scientific) at a ratio of 0.5 mg of peptide per 1 mL of settled resin and incubated on a rotator at 4 °C overnight. After washing five times with PBS, the peptide/small molecule-bead conjugates were diluted with PBS at a 1:1 ratio. To prepare protein extracts, cells were collected by centrifugation and lysed by freezing and thawing at least 10 times in hypotonic buffer [10 mM KCl, 1.5 mM MgCl2, and 10 mM HEPES (pH 7.9)] with a protease inhibitor mix (Sigma). After centrifugation at 15,000 rpm 4 °C for 15 min, proteins were quantified using a BCA protein assay kit (Thermo Fisher Scientific). Total protein (200 μg) diluted in 300 μL of binding buffer [0.05% Tween-20, 10% glycerol, 0.2 M KCl, and 20 mM HEPES (pH 7.9)] were mixed with 50 μL of peptide/small molecule-bead resin and incubated at 4 °C for 2 h on a rotator. The protein-bound beads were collected by centrifugation at 2400 × g for 3 min and washed five times with binding buffer. The beads were resuspended in 25 μL of SDS sample buffer, heated at 95 °C for 5 min, and subjected to SDS/PAGE and immunoblotting.

In experiment [5] the test system is p62 and LC3 punctate structures. The experiment in a line: ICC of p62 and LC3 puncta formation and co-localization in HeLa cells. Type of experiment: cell-based. The note with it: 2.5 μM, 24 h. As to the method:
as §1

Experiment [6] relates to p62-positive and WIPI2-positive punctate structures. As to the kind of experiment: ICC of WIPI2-p62 co-localization in HeLa cells. The format is cell-based. As to the method: as §1
Supplementary Fig. 2. Characterization of p62-ZZ ligands (a, c, e) 3-D modeling of p62 […]
μM, 6 h). (m) Quantification of l for co-localization (n=3, 50 cells). Scale bar, 10 µm. (n) […]

In experiment [7] the test system is autophagic turnover of p62 and LC3. The experiment in a line: Autophagic flux assay in HeLa cells with or without HCQ. Type of experiment: cell-based. The note with it: 2.5 μM, 24 h, with or without HCQ 10 µM 24 h. As to the method: Fig. 1 Nt-Arg-mimicking p62-ZZ ligands activate p62-dependent selective macroautophagy. a A model illustrating the mode of action of autophagy-targeting ligands. b Chemical structures of autophagy-targeting ligands. c In vitro pulldown assay in HEK293T cells of the 12-mer V-BiP peptide or autophagy-targeting ligands. d In vitro p62 oligomerization assay in HEK293T cells incubated with the p62-ZZ ligands in (b). e ICC of HeLa cells treated with p62-ZZ ligands in (b) (2.5 μM, 24 h). Scale bar, 10 μm. f, g Quantification of (e) for puncta formation and co-localization, respectively (n = 3 biologically independent experiments each counting 50 cells). h A schematic/formulae for autophagy flux index. i Autophagic flux assay in HeLa cells treated with YOK-1304 or YTK-105 (2.5 μM, 24 h) in the presence or absence of HCQ (10 µM, 24 h). Data are presented as mean values ± SD where relevant. P-values (from a two-sided unpaired t test): ***P < 0.000956 (for p62 punctate formation), ***P < 0.000539 (for LC3 punctate formation), ***P < 0.000925 (for p62-LC3 co-localization). Source data are provided with this paper. TEXT PRINTED IN THE PICTURE: (i) YOK 1304: Normalized p62 A.F. index: 2.8; Normalized LC3 II/I A.F. index: 4.2 | (i) YTK 105: Normalized p62 A.F. index: 4.6; Normalized LC3 II/I A.F. index: 11.2
as §2

Experiment [8] addresses T2, methionine aminopeptidase 2 (MetAP2) (Homo sapiens, UniProt P50579).
T2 construct: Targeted autophagic degradation of endogenous oncoproteins by AUTOTAC; endogenous in cells; host or cells: HEK293 / HEK293T, U87-MG
The experiment in a line: Western blot degradation of MetAP2. The format is cell-based. The note with it: 293T, 24 h. As for the experimental part: as §2

The subject of experiment [9] is U87-MG glioblastoma cells. The experiment in a line: Wound healing assay in U87-MG cells. The format is cell-based. Also on record: wound area, single experiment / wound area, Average: unit not given here. As to conditions: Fig. S4j. As for the experimental part:
To analyze cell migration in two dimensions, U-87 MG or ACHN cells were plated to a monolayer. Cells were scratched with a sterile 10 μl pipette tip and the debris was removed using medium. Cells were treated with compounds and incubated for different time to monitor cell behavior. Photographs were obtained using a microscope at different time point.

The mark [10] stands for this setting: HeLa expressing WIPI2-GFP, 2.5 μM, 6 h.
Where [11] appears, read: HeLa, endogenous WIPI2, 2.5 μM, 24 h.

Chain of tauP301L (P10636 1-441 isoform P10636-8 P301L): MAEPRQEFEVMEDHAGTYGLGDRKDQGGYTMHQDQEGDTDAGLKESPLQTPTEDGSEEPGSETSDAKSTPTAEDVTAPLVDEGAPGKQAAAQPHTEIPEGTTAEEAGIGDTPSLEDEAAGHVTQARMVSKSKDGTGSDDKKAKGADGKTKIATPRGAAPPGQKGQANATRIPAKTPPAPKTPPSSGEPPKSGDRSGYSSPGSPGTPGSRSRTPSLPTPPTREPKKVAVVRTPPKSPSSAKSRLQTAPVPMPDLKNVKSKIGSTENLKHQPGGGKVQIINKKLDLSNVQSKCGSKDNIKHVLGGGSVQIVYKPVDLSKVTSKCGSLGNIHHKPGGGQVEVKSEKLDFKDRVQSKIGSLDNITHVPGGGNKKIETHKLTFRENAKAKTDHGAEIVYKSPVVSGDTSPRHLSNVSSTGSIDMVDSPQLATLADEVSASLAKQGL
T1 sequence (Q13501 whole entry): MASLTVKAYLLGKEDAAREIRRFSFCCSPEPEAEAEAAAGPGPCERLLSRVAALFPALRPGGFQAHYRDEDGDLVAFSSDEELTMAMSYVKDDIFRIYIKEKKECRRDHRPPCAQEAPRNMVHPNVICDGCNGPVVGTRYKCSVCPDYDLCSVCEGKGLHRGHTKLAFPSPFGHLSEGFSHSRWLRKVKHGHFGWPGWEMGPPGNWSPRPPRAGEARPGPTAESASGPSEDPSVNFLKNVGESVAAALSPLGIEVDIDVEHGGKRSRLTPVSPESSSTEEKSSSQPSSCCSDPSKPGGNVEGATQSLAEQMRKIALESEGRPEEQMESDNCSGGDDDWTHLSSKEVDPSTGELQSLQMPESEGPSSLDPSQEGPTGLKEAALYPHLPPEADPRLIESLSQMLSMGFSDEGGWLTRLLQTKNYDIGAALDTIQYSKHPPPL
T2 sequence (P50579 whole entry): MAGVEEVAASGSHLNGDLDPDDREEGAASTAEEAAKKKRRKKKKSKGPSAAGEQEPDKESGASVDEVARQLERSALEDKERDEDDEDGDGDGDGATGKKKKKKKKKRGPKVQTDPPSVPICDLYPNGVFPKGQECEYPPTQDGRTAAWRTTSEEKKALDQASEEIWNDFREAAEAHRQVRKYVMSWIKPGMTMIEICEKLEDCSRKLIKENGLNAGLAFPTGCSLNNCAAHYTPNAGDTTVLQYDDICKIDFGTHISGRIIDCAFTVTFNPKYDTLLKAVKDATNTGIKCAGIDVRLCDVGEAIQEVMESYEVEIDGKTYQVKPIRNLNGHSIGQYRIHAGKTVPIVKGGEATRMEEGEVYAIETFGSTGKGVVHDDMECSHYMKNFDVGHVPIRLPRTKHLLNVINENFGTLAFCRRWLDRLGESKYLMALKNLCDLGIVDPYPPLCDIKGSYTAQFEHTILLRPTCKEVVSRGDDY

As to `O=C(CCCc1ccccc1)NCCOCCOCCOCCNC[C@@H](O)COc1ccc(OCc2ccccc2)c(OCc2ccccc2)c1` [PBA-1106], in [1], the p62 self-oligomerization result is reported as “triggered its self-oligomerization”. For the same compound, the “p62 puncta structures (per cell)” value in experiment [2] worked out at 14 ± 4.2. Also, in experiment [3], the DC50 was 1 to 10 nM and the “Dmax,24 hr of tauP301L degradation” value was 100 nM.

Regarding `OCCNCc1cccc(OCc2ccccc2)c1` [YTK-105], in experiment [4], the “binding of p62 in pulldown” value is on record as “bound”. In experiment [5], the “LC3 puncta formation, AVG of cells of 50” value was 42.3333; the “LC3 puncta formation, percentage AVG” value amounted to 84.6667%; the “p62-LC3 colocalization, AVG of cells of 50” value is reported as 45; the “p62-LC3 colocalization, percentage AVG” value is recorded as 90%. In experiment [5], the “p62 puncta formation, AVG of cells of 50” value turned out to be 43.6667 and the “p62 puncta formation, percentage AVG” value came out at 87.3333%. In addition, in [5] (single experiments), the “LC3 puncta formation, cells of 50 cells counted” value was 38 and 42 and 47; the “p62-LC3 colocalization, cells of 50 cells counted” value was 46 and 43; the “p62 puncta formation, cells of 50 cells counted” value is 43 and 41 and 47. Besides, in experiment [6] (setting [10]), the “WIPI2-GFP-p62 colocalization, AVG of cells of 50” value came to 25 and the “WIPI2-GFP-p62 colocalization, percentage AVG” value was 50%. Also, in [6] (HeLa expressing WIPI2-GFP, 2.5 μM, 6 h, single experiments), the “WIPI2-GFP-p62 colocalization, cells of 50 cells counted” value is 31 and 18 and 26. For the same compound, in experiment [6] (setting [11]), the “WIPI2-p62 colocalization, AVG of cells of 50” value amounted to 40.6667 and the “WIPI2-p62 colocalization, percentage AVG” value is on record as 81.3333%. Besides, the “WIPI2-p62 colocalization, cells of 50 cells counted” value in [6] (HeLa, endogenous WIPI2, 2.5 μM, 24 h, single experiments) is 48 and 33 and 41. Also, in [7], the “Normalized LC3 II/I A.F. index” value stood at 11.2 and the “Normalized p62 A.F. index” value is 4.6. For the same compound, in experiment [8] (2.5uM), the “MetAP2 normalized to control, AVG %” value is listed as 101.594%. Further, the “MetAP2 normalized to control, AVG %” value in experiment [8] (10uM) worked out at 142.103%. The “wound area, single experiment” value in [9] (0h) is 1132236 and 1199923 and 1182736. In [9] (0h (reference = 100)), the “wound area, Average %” value amounted to 100%. The “wound area, Average” value in experiment [9] (0h, con 1278325) turned out to be 1171632. In addition, in [9] (4h), the “wound area, single experiment” value was 859025 and 791115 and 860952. Further, in experiment [9] (4h, con 815372), the “wound area, Average” value is 837031. The “wound area, Average %” value in experiment [9] (4h, relative to 0h, con 63.7844) turned out to be 71.4415%. For the same compound, the “wound area, single experiment” value in [9] (12h) is 450234 and 520420 and 504520. Moreover, the “wound area, Average” value in experiment [9] (12h, con 627015) came out at 491725. For the same compound, the “wound area, Average %” value in experiment [9] (12h, relative to 0h, con 49.0497) came to 41.9692%. Besides, the “wound area, single experiment” value in [9] (24h) is 288632 and 435340 and 335340. Moreover, the “wound area, Average” value in [9] (24h, con 144265) is 353104. Besides, in experiment [9] (24h, relative to 0h, con 11.2855), the “wound area, Average %” value is given as 30.1378%.
